Assay results published in publication PMC3308197 (Journal of Medicinal Chemistry, 2012).

Conditions: from measured plasma protein binding in vitro of 92%

SMILES: Cc1cc(-c2nnc(N)nc2-c2ccccc2)cc(C(F)(F)F)n1 [Compound 4k, 6-[2-Methyl-6-(trifluoromethyl)pyridin-4-yl]-5-phenyl-1,2,4-triazin-3-amine]
- unbound plasma fraction: 8%
